The values that follow are results of earlier work, collected in patent US20260240758A1, “INJECTABLE PHENYLEPHRINE COMPOSITIONS” (Hikma Pharmaceuticals USA Inc., priority 2022, published 2026).

Molecules are shown by their SMILES.

For this series the following is noted: phenylephrine HCl 400 μg/ml and 200 μg/ml, PVC bags, 60 days at room temperature.

Take `CNC[C@H](O)c1cccc(O)c1` [phenylephrine]: the phenylephrine degraded is on record as 4-5%.
